The results in this text go back to patent US20110091387A1, “METHODS AND COMPOSITIONS FOR REDUCING SKIN DAMAGE” (THE GENERAL HOSPITAL CORPORATION, priority 2007, published 2011).

Each structure is given as a SMILES string. Structures can show the parent of a compound that is named as a salt.

The first assay deals with RhoE promoter. Put plainly: RhoE promoter luc2 luciferase reporter screen for inducers of RhoE expression. The format is cell-based. Particulars: Table 1; luminescence at 24 hours, two replicates per compound. The method, then:
To isolate compounds that can activate RhoE pathway in keratinocytes and protect against UVB exposure, a robust and sensitive chemical genetics approach was developed for the identification of small molecules that induce RhoE expression. Briefly, a reporter construct was created that included the RhoE promoter operatively linked to the luc2 luciferase reporter gene (FIG. 1A). Stable cell lines were produced that expressed the reporter construct, and the cells were plated in 384 well plates at ˜10,000 cells per well. The library test compounds were added to the plated cells at two replicates per compound, and the cells were incubated with the compounds for 24 hours. Luminescence was measured at 24 hours using a plate reader. The data were analyzed using Spotfire.
For orientation: A reporter such as luciferase makes a cellular process visible.
For `CCOC(=O)C1(O)Oc2cc(OC)cc(OC)c2C(=O)C1c1ccccc1` (stereo not shown) [2-ethoxycarbonyl-2-hydroxy-5,7-dimethoxyisoflavanone], the “Composite Z value (induction of RhoE expression)” value (from here on “Composite Z value”) is 2.164. Turning to `O=c1c2ccccc2oc2ccc(O)cc12` [2-hydroxyxanthone], the “Composite Z value” value was determined as 2.2158. In the case of `COc1ccc2oc3ccccc3c(=O)c2c1` [2-methoxyxanthone], the “Composite Z value” value is recorded as 3.8383. On to `Cc1ccc2cc3c(ccc4ccccc43)c3c2c1CC3` [3-methylcholanthrene], for which the “Composite Z value” value turned out to be 2.4062. Still for that read-out and setting: next, `COc1ccc(-c2cc(=O)c3ccccc3o2)cc1OC` [3′,4′-dimethoxyflavone]: 2.21; `O=C(/C=C/c1ccccc1)c1ccc(O)cc1` [4′-hydroxychalcone]: 2.8467.

Turning to `COc1ccc(C(=O)/C=C/c2ccccc2)cc1` [4′-methoxychalcone], the “Composite Z value” value is listed as 3.8036. `COc1ccccc1-c1cc(=O)c2c(OC)cccc2o1` [5,2′-dimethoxyflavone]: the “Composite Z value” value was 3.0257. Regarding `COc1ccc(-c2cc(=O)c3c(OC)cc(OC)cc3o2)cc1` [5,7,4′-trimethoxyflavone], the “Composite Z value” value turned out to be 5.4102.

As for `COc1cc(OC)c2c(=O)c(-c3ccccc3)coc2c1` [5,7-dimethoxyisoflavone], the “Composite Z value” value stood at 3.2977. Turning to `COc1ccc(-c2coc3cc(OC)ccc3c2=O)cc1` [7,4′-dimethoxyisoflavone], the “Composite Z value” value is given as 3.0721. Still for that read-out and setting: as for `COc1ccccc1-c1cc(=O)c2cccc(OC)c2o1` [8,2′-dimethoxyflavone], the figure is 2.7326; as for `COc1ccc(-c2cc(=O)c3c(O)cc(O)cc3o2)cc1` [Acacetin], 3.2375; as for `CCCSc1ccc2nc(NC(=O)OC)[nH]c2c1` [Albendazole, reference compound], 3.0534.

Consider `O=C1c2ccccc2-c2cccc3cccc1c23` [Benzanthrone], for which the “Composite Z value” value was determined as 2.735. Same read-out and setting: as for `CCCCOC(=O)c1ccc(O)cc1` [Butylparaben], the figure is 2.6043; as for `CC(C)OC(=O)Nc1cccc(Cl)c1` [Chlorpropham], 2.5656.

For the compound `O=c1cc(-c2ccc(O)cc2)oc2cc(O[C@@H]3O[C@H](CO)[C@@H](O)[C@H](O)[C@H]3O)cc(O)c12` [Cosmosiin], the “Composite Z value” value was found to be 4.8646. The same measure, in the same setting: as for `COc1cc(OC)c2c(=O)c(-c3ccc4c(c3)OCO4)coc2c1` [Derrustone], the figure is 2.3814; as for `O=C(CC(=O)c1ccccc1)c1ccccc1` [Dibenzoylmethane], 3.651. Still for that read-out and setting: next, `COc1ccc(-c2cc(=O)c3c(O)cc(O)cc3o2)cc1O` [Diosmetin]: 4.5672; `O=C(Nc1ccccc1)Nc1ccccc1` [Diphenylurea]: 3.1382. Still for that read-out and setting: next, `O=c1c2ccccc2[se]n1-c1ccccc1` [Ebselen]: 2.3104; `C[C@]12CC[C@H]3C(=CCc4cc(O)ccc43)[C@@H]1CCC2=O` [Equilin, reference compound]: 2.3429.

For `C=C(C)c1cc2cc(C(C)=O)c(O)cc2o1` [Euparin], the “Composite Z value” value came to 2.4662.

With `O=c1c(-c2ccc(O)cc2)coc2cc(O)cc(O)c12` [Genistein], the “Composite Z value” value turned out to be 2.5938.

Turning to `C=C1C(=O)O[C@@H]2C[C@@]3(C)CCC[C@H](C)C3=C[C@H]12` [Helenine], the “Composite Z value” value came out at 2.473. Same read-out and setting: as for `O=c1cc(-c2cc(O)c(O)c(O)c2)oc2cc(O)cc(O)c12` [Hieracin], the figure is 3.8448; as for `COc1cc(-c2coc3cc(O[C@@H]4O[C@H](CO)[C@@H](O)[C@H](O)[C@H]4O)c(OC)c(O)c3c2=O)cc(O)c1OC` [Iridin], 2.7194; as for `O=c1cc(-c2ccc(O)c(O)c2)oc2cc(O)cc(O)c12` [Luteolin], 2.3069.

`Oc1ccc2c(c1)OC[C@H]1c3cc4c(cc3O[C@@H]21)OCO4` [Maackiain]: the “Composite Z value” value was found to be 2.2116. As for `COC(=O)Nc1nc2ccc(SC(C)C)cc2[nH]1` [Methiazole], the “Composite Z value” value stood at 2.2516. In the case of `Oc1ccc(OCc2ccccc2)cc1` [Monobenzone, reference compound], the “Composite Z value” value is given as 2.1629.

With `O=C1C[C@@H](c2ccc(O)cc2)Oc2cc(O)cc(O)c21` [Naringenin], the “Composite Z value” value stood at 2.3231.

As for `COc1ccc(CC(=O)c2ccc(O)cc2O)cc1` [Ononetin], the “Composite Z value” value was found to be 2.6414.

Regarding `CCCOc1ccc2nc(NC(=O)OC)[nH]c2c1` [Oxibendazole, reference compound], the “Composite Z value” value is reported as 2.2003. For `CC(C)N(C(=O)CCl)c1ccccc1` [Propachlor], the “Composite Z value” value is recorded as 2.8556. In the case of `CCN(CC)CCCC(C)Nc1c2ccc(Cl)cc2nc2ccc(OC)cc12` (stereo not shown) [Quinacrine dihydrochloride dihydrate, reference compound], the “Composite Z value” value was determined as 2.324. As to `COc1cc(O)c2c(=O)c(O)c(-c3ccc(O)c(O)c3)oc2c1` [Rhamnetin], the “Composite Z value” value is listed as 2.1577. The same measure, in the same setting: next, `CNc1ccccc1C(=O)N1CCc2c([nH]c3ccccc23)C1=O` [Rhetsinine]: 3.357; `c1ccc2[nH]c(-c3cscn3)nc2c1` [Tiabendazole, reference compound]: 3.5924; `CCN(CC)CCOc1ccc2c(c1)C(=O)c1cc(OCCN(CC)CC)ccc1-2` [Tilorone, reference compound]: 3.4862. As to `CC1=C(/C=C/C(C)=C/C=C/C(C)=C/C(=O)O)C(C)(C)CCC1` [Tretinoin, reference compound], the “Composite Z value” value is listed as 2.2603. Same read-out and setting: next, `O=c1c2ccccc2oc2ccccc12` [Xanthone]: 3.79; `CC1(C)C=Cc2cc3ccc(=O)oc3cc2O1` [Xanthyletin]: 2.6831; `COc1ccc(-c2cc(=O)c3c(OC(C)=O)cc(OC(C)=O)cc3o2)cc1` [acacetin diacetate]: 3.977.

Take `CC(=O)Oc1ccc(-c2cc(=O)c3c(OC(C)=O)cc(OC(C)=O)cc3o2)cc1` [apigenin triacetate]: the “Composite Z value” value came to 4.6992. With `Cl.NNCc1ccccc1` [benzylhydrazine hydrochloride], the “Composite Z value” value turned out to be 2.3759.

Staying with this assay, now noted: Table 2; luminescence at 24 hours, two replicates.
Consider `COc1ccc(-c2cc(=O)c3c(OC)cc(OC)cc3o2)cc1` [5,7,4′-trimethoxyflavone], for which the “Composite Z” value came to 5.4102. The same measure, in the same setting: as for `O=c1cc(-c2ccc(O)cc2)oc2cc(O)cc(O)c12` [Apigenin], the figure is 5.3515; as for `O=c1cc(-c2ccccc2)oc2cc(O)cc(O)c12` [Chrysin], 5.4731.

Still in this assay, the particulars now being: Table 2; luminescence at 24 hours, two replicates; listed as apigenin.
As to `O=c1cc(-c2ccc(O)cc2)oc2cc(O)cc(O)c12` [Apigenin], the “Composite Z” value is 5.8729.
